From patent publication US20130143830A1, “AGENTS FOR COMBATING AND REDUCING THE IRRITATING ACTION OF SURFACTANTS IN COMPOSITIONS TO BE APPLIED TO THE SKIN FOR CARE OR CLEANSING OF THE FACE AND BODY” (GIULIANI S.P.A, priority 2008, published 2013)

Experiments:
[1] = tested on: EPISKIN model of reconstructed human epidermis; test: MTT cell viability test on EPISKIN model (in vitro skin irritation); type: cell-based
Procedure: 2.1.1 EPISKIN™ model (EPISKIN-SM™), EPISKIN SNC Lyon, France, is a model of reconstructed human epidermis. The human keratinocytes are seeded on a dermal substitute consisting of a collagen type I matrix coated with type IV collagen. A highly differentiated and stratified epidermis model is obtained after a 13-day culture period comprising the basal, suprabasal, spinous and granular layers and a functional stratum corneum (Tinois et al., 1984). The model is used in the skin irritation applying the substances being examined at topical level to the epidermis and subsequently assessing cell viability.
10 μl of the solutions were applied to the surface of the epidermis for 15 minutes, followed by 42 hours of recovery.
VitroScreen is implementing a quality system in compliance with the GLP regulations (2004/9/CE and 2004/10/CE) in preparation of the GLP Audit and relative certification. The methods utilized in the study were entered in the list of VitroScreen methods. Following a validation study coordinated by ECVAM the Episkin test system was validated by the ESAC (27/04/07); this uses a model of epidermis reconstructed in vitro—EPISKIN—to assess skin irritation produced by chemical substances for hazard identification and R38 classification: cell viability is quantified after 15 min of exposure +42 h of recovery. Quantification of IL-1α with the ELISA method is part of the validated method for skin irritation as it allows the substances to be distinguished even when there is no decrease in cell viability.
The MTT test is considered an international standard for quantification of cytotoxicity (ISO 10993-5). The method allows quantification of the cytotoxic effect produced by the product through measuring cell viability. Cytotoxicity is quantified by measuring the decrease in cell viability compared to an untreated negative control. It is based on the metabolizing reaction which takes place between the salt of tetrazolium (MTT) and the mitochondrial enzymes (succinate dehydrogenase) after contact with the product for the various treatment times: only the viable cell can transform the salt of tetrazolium into the insoluble derivative (Formazan), reaction which is highlighted by the formation of a purple color at the bottom of the insert.
Metabolization of the salt takes place at the level of the basal cells of the epithelium in the area above the polycarbonate support.
The purple colored derivative is extracted in isopropanol and quantified spectrophotometrically at 570 nm.
At the end of treatment and post-incubation with the substances being examined, the EPISKIN models are transferred to 12 well plates, filled with 2 ml of MTT (used at the concentration of 0.3 mg/ml in the assay medium) and the test is conducted for 3 hours at 37° C., 5% CO2, 90% humidity.
The formazan is extracted from the tissue in Eppendorf tubes with 500 μl of acidified isopropanol (0.04 N HCL final concentration) with incubation in the dark under stirring for 4 hours at room temperature.
10 μl of the substances being examined, of the positive (SDS 5%) and negative (sterile water) control are applied to the surface of the epidermis.
The treated tissues are maintained at room temperature for 15 minutes (±0.5 minutes).
At the end of incubation the tissues are washed 2-3 times with PBS and placed in an incubator with fresh maintenance medium for 42 hours of recovery.
The TEER is measured post-treatment and the MTT test is then conducted for 3 hours at 37° C. and formazan is subsequently extracted for 4 hours as described in the methods.
At the end of the test 2×200 μl of sample for each well are transferred to 96 well plates and read spectrophotometrically at 570 nm.
The optical densities are recorded directly by the Microplate autoreader (TECAN INFINITE M-200), exported to Excel files and the cell viability % is calculated compared to the optical density of the negative control. […]

[2] = pH of the prepared solutions; type: physicochemical; conditions: positive control solution
Procedure: The solutions are prepared and the pH is measured.

| SMILES | irritation classification by predictive model ([1]; MAG at 2%) | cytotoxic effects ([1]; MAG at 2%, 15 min exposure + 42 h recovery) | irritation classification by predictive model ([1]; MAG at 2%, listed as Mono-Ammonium Glycyrrhizate) | irritation classification by predictive model ([1]; MAG at 5%) | loss of viability ([1]; MAG at 5%, 15 min exposure + 42 h recovery) [%] | irritation classification by predictive model ([1]; MAG at 5%, listed as Mono-Ammonium Glycyrrhizate) | reduction in viability ([1]; SDS 5%, 10 μl, 15 min exposure + 42 h recovery, vs negative control) [%] | irritation classification by predictive model ([1]; solution as tested, 15 min exposure + 42 h recovery, cut-off 50% viability, sulfate) | pH [2] |
| --- | --- | --- | --- | --- | --- | --- | --- | --- | --- |
| CC1(C)[C@@H](O[C@H]2O[C@H](C(=O)O)[C@@H](O)[C@H](O)[C@H]2O[C@@H]2O[C@H](C(=O)O)[C@@H](O)[C@H](O)[C@H]2O)CC[C@]2(C)[C@H]3C(=O)C=C4[C@@H]5C[C@@](C)(C(=O)O)CC[C@]5(C)CC[C@@]4(C)[C@]3(C)CC[C@@H]12.N [MAG, monoammonium glycyrrhizinate] | non-irritant | no cytotoxic effects | NON IRRITANT (NI) | non-irritant | 20 | NON IRRITANT (NI) | – | – | – |
| CCCCCCCCCCCCOS(=O)(=O)[O-].[Na+] [SDS 5%, sodium dodecyl sulfate, reference compound] | – | – | – | – | – | – | 80 | R38 irritant | 5.80 |
